From article PMC9687241 (Biomolecules, 2022) come the findings set out here.

As usually defined, the Ki is the equilibrium dissociation constant of an inhibitor or competing ligand from its target.

Test [1] addresses T1, SARS-CoV-2 M^pro (Severe acute respiratory syndrome coronavirus 2, UniProt P0DTD1). It is filed as biochemical. Particulars: 0.2 µM M^pro, 2 h incubation at r.t., 4 µM substrate, Hill equation fit; read-out: Inhibition constants, Ki.
Test [2] addresses T1, SARS-CoV-2 M^pro. Kind of test: ESI MS of metallodrug-protein adduct formation. The class given is binding. Particulars: protein-to-metal ratio 1:3 (1:1 for Au(PEt3)Br), 37 °C, 4 h incubation (up to 24 h).

Each structure is given as a SMILES string.

Consider `CC[P](CC)(CC)[Au][Br]` [Au(PEt3)Br], for which, at SARS-CoV-2 M^pro [1], the inhibition constant Ki amounted to 440 ± 22 nM. As for `CC[P](CC)(CC)[Au][I]` [Au(PEt3)I], on SARS-CoV-2 M^pro [1], the Ki stood at 2120 ± 96 nM.

`CCCC[n+]1ccn(C)[c]1[Au-][Cl]` [Au(NHC)Cl]: the Ki at SARS-CoV-2 M^pro [1] worked out at 870 ± 40 nM. The “protein metalation / adduct formation (ESI MS)” value at SARS-CoV-2 M^pro [2] is “formation of a mono adduct”. As to `CCP(CC)CC.[Au+].[Cl-]` [Au(PEt3)Cl], on SARS-CoV-2 M^pro [1], the Ki was 660 ± 26 nM.
